Measurements: patent US20240158370A1, “CK1 alpha AND DUAL CK1 alpha / GSPT1 DEGRADING COMPOUNDS” (Innovo Therapeutics, Inc., priority 2022, published 2024)

What was measured:
GSPT1 = GSPT1 (Homo sapiens, UniProt P15170+Q96SW2); assay: HiBiT degradation assay, GSPT1, Procedure A; type: cell-based; set-up: HiBit-GSPT1 KI HEK293(LgBit) Cells; host or cells: HEK293(LgBit) knock-in cells
Method in brief: (§1)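 Cells in DMEM + 10% FBS were treated with compound in a ten-point dose response from 10 μM to 0.005 μM (0.1% DMSO) for six hours at 37° C. Lysis with Nano-Glo HiBiT detection reagent followed, with luminescence read. DC50 and Ymin came from a 4-parameter fit.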

CK1α = biological target: T1, CK1α (Homo sapiens, UniProt P48729+Q96SW2); assay: HiBiT degradation assay, CK1α, Procedure A; type: cell-based
T1 construct: CSNK1A1-HiBit KI HEK293(LgBit) Cells; host or cells: HEK293(LgBit) knock-in cells
T1 sequence (P48729 whole entry): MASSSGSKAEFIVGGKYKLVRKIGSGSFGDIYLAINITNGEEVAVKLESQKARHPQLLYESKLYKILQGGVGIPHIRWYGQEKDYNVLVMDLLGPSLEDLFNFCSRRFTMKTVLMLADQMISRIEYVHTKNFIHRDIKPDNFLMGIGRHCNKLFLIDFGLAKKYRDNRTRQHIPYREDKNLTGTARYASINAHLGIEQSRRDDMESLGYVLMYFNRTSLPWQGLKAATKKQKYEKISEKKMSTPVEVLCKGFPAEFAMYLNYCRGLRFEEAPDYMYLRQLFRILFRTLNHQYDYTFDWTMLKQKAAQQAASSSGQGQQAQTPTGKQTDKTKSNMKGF
T1 sequence (Q96SW2 whole entry): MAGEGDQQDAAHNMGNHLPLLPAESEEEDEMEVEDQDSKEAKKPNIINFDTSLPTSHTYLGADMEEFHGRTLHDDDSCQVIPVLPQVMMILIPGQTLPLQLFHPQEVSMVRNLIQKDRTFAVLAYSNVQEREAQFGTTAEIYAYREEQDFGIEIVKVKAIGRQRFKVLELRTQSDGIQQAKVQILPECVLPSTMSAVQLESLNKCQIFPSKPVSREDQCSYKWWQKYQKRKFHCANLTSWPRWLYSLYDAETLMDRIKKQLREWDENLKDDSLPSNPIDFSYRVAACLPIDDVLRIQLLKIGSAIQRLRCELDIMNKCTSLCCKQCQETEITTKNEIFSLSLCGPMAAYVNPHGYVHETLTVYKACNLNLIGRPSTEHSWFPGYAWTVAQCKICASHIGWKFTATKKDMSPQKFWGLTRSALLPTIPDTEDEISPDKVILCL
T1 sequence (Q16531 whole entry partner): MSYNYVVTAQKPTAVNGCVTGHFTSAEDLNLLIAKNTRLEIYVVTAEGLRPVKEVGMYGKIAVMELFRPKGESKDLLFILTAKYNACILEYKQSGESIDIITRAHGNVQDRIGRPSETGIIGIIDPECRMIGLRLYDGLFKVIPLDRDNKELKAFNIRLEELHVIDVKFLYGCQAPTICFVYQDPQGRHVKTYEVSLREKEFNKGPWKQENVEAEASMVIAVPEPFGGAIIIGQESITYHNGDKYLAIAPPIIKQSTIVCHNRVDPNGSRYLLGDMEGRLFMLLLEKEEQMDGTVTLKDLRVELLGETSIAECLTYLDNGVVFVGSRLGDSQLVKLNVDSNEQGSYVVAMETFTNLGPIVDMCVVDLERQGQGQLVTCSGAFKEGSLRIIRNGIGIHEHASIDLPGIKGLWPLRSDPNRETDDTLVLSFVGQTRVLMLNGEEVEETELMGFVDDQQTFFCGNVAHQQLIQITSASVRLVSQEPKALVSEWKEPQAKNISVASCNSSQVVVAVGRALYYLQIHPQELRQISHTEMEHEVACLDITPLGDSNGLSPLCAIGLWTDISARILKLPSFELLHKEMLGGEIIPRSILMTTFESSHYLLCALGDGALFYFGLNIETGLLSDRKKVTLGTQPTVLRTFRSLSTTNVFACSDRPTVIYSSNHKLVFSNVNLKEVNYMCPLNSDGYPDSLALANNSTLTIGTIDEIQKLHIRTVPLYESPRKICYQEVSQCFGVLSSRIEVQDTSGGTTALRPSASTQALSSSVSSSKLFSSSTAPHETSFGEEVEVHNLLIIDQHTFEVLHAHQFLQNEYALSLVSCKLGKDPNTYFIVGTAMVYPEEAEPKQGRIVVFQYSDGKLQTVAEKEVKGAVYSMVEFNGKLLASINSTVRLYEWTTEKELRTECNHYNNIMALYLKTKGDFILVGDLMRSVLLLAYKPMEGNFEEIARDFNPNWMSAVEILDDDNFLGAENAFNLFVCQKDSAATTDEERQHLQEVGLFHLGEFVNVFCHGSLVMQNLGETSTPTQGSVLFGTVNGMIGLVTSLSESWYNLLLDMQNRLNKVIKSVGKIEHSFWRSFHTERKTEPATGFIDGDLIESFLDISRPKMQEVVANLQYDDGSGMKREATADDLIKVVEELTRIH
Method in brief: as §1

Chain of GSPT1 (P15170 whole entry): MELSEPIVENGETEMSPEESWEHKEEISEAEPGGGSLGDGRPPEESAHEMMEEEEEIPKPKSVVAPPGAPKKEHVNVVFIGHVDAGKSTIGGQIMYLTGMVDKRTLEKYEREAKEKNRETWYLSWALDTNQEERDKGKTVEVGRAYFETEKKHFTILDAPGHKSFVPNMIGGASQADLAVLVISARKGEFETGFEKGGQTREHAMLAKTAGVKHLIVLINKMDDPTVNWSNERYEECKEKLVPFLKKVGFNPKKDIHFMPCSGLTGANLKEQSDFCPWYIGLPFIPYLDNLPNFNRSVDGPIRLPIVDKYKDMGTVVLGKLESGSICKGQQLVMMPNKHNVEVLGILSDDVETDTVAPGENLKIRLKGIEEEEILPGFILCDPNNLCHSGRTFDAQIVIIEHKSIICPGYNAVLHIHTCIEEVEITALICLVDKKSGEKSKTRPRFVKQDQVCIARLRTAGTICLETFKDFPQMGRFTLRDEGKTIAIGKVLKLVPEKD
Chain of GSPT1 (Q96SW2 whole entry): as the sequence (Q96SW2 whole entry) above
Chain of GSPT1 (Q16531 whole entry partner): as the sequence (Q16531 whole entry partner) above

SMILES | DC50 (GSPT1; six hours) [nM] | GSPT1 Ymin (GSPT1; six hours) | CK1α Ymin (CK1α; six hours) | DC50 (CK1α; six hours) [nM] | DC50 (GSPT1; six hours incubation) [nM] | GSPT1 Ymin (GSPT1; six hours incubation) | CK1α Ymin (CK1α; six hours incubation) | DC50 (CK1α; six hours incubation) [nM]
O=C1CCC(N2Cc3cc(-c4cn(C(F)F)nc4-c4ccc5c(c4)CCO5)ccc3C2=O)C(=O)N1 (stereo not drawn) [Example 423, 3-(5-(1-(difluoromethyl)-3-(2,3-dihydrobenzofuran-5-yl)-1H-pyrazole-4-yl)-1-oxoisoindolin-2-yl)piperidine-2,6-dione] | ≥ 25 | F (F = >75-100% remaining) | D (D = >10- 25% remaining) | < 25 |  |  |  | 
Cn1ncc(-c2ccc3c(c2)CN(C2CCC(=O)NC2=O)C3=O)c1-c1ccc(C#N)cc1 (stereo not drawn) [Example 57] |  |  |  |  | ≥ 25 | F (F = >75-100% remaining) | E (E = >25-75% remaining) | ≥ 25
COc1ccncc1-c1c(-c2ccc3c(c2)CN(C2CCC(=O)NC2=O)C3=O)ncn1C (stereo not drawn) [Example 524] | ≥ 25 | F (F = >75-100% remaining) | E (E = >25-75% remaining) | ≥ 25 |  |  |  | 
Cc1cccc(-c2c(-c3ccc4c(c3)CN(C3CCC(=O)NC3=O)C4=O)ncn2C)c1C (stereo not drawn) [Example 167] |  |  |  |  | < 25 | F (F = >75-100% remaining) | E (E = >25-75% remaining) | < 25
Cn1cnc(-c2ccc3c(c2)CN(C2CCC(=O)NC2=O)C3=O)c1-c1cnc(N)nc1 (stereo not drawn) [Example 485] | ≥ 25 | F (F = >75-100% remaining) | E (E = >25-75% remaining) | ≥ 25 |  |  |  | 
Cn1cnc(-c2ccc3c(c2)CN(C2CCC(=O)NC2=O)C3=O)c1-c1cc(Cl)cc(C#N)c1 (stereo not drawn) [Example 271] |  |  |  |  | < 25 | F (F = >75-100% remaining) | E (E = >25-75% remaining) | ≥ 25
Cc1c(-c2c(-c3ccc4c(c3)CN(C3CCC(=O)NC3=O)C4=O)cnn2C)cnn1C (stereo not drawn) [Example 372] |  |  |  |  | ≥ 25 | F (F = >75-100% remaining) | E (E = >25-75% remaining) | ≥ 25
Cn1ncc(-c2ccc3c(c2)CN(C2CCC(=O)NC2=O)C3=O)c1-c1ccc(S(C)(=O)=O)cc1 (stereo not drawn) [Example 221] |  |  |  |  | ≥ 25 | F (F = >75-100% remaining) | E (E = >25-75% remaining) | ≥ 25
COc1ccc(-c2c(-c3ccc4c(c3)CN(C3CCC(=O)NC3=O)C4=O)cnn2C)cc1F (stereo not drawn) [Example 104] |  |  |  |  | ≥ 25 | F (F = >75-100% remaining) | C (C = 0-10% remaining) | < 25
Cc1cccc(-c2c(-c3ccc4c(c3)CN(C3CCC(=O)NC3=O)C4=O)cnn2C)c1 (stereo not drawn) [Example 76] |  |  |  |  | ≥ 25 | F (F = >75-100% remaining) | D (D = >10- 25% remaining) | < 25
Cn1cnc(-c2ccc3c(c2)CN(C2CCC(=O)NC2=O)C3=O)c1-c1ccc2ncn(C)c2c1 (stereo not drawn) [Example 500] | ≥ 25 | F (F = >75-100% remaining) | C (C = 0-10% remaining) | < 25 |  |  |  | 
Cn1cnc(-c2ccc3c(c2)CN(C2CCC(=O)NC2=O)C3=O)c1-c1ccc2nc[nH]c2c1 (stereo not drawn) [Example 401] | ≥ 25 | E (E = >25-75% remaining) | C (C = 0-10% remaining) | < 25 |  |  |  | 
Cc1noc(-c2ccccc2)c1-c1ccc2c(c1)CN(C1CCC(=O)NC1=O)C2=O (stereo not drawn) [Example 29, 3-(5-(3-Methyl-5-phenylisoxazol-4-yl)-1-oxoisoindolin-2-yl)piperidine-2,6-dione] |  |  |  |  | ≥ 25 | F (F = >75-100% remaining) | F (F = >75-100% remaining) | ≥ 25

Further lines, results first:

DC50 (GSPT1; six hours) [nM] | GSPT1 Ymin (GSPT1; six hours) | CK1α Ymin (CK1α; six hours) | DC50 (CK1α; six hours) [nM] | DC50 (GSPT1; six hours incubation) [nM] | GSPT1 Ymin (GSPT1; six hours incubation) | CK1α Ymin (CK1α; six hours incubation) | DC50 (CK1α; six hours incubation) [nM] | SMILES
 |  |  |  | ≥ 25 | F (F = >75-100% remaining) | E (E = >25-75% remaining) | ≥ 25 | Cn1ncc(-c2ccc3c(c2)CN(C2CCC(=O)NC2=O)C3=O)c1-c1ccc(F)c(C#N)c1 (stereo not drawn) [Example 58]
≥ 25 |  | D (D = >10- 25% remaining) | < 25 |  |  |  |  | Cn1nc(-c2ccc3c(c2)CN(C2CCC(=O)NC2=O)C3=O)cc1C1CCOCC1 (stereo not drawn) [Example 538, 3-(5-(1-methyl-5-(tetrahydro-2H-pyran-4-yl)-1H-pyrazol-3-yl)-1-oxoisoindolin-2-yl)piperidine-2,6-dione]
 |  |  |  | ≥ 25 | F (F = >75-100% remaining) | C (C = 0-10% remaining) | < 25 | Cn1cc(-c2ccc3c(c2)CN(C2CCC(=O)NC2=O)C3=O)nc1-c1ccc(C(F)(F)F)cc1 (stereo not drawn) [Example 209, 3-(5-(1-methyl-2-(4-(trifluoromethyl)phenyl)-1H-imidazol-4-yl)-1-oxoisoindolin-2-yl)piperidine-2,6-dione]
< 25 | F (F = >75-100% remaining) | C (C = 0-10% remaining) | < 25 |  |  |  |  | Cn1ncc(-c2ccc3c(c2)CN(C2CCC(=O)NC2=O)C3=O)c1-c1ccc2c(c1)OC(F)(F)O2 (stereo not drawn) [Example 542, 3-(5-(5-(2,2-difluorobenzo[d][1,3]dioxol-5-yl)-1-methyl-1H-pyrazol-4-yl)-1-oxoisoindolin-2-yl)piperidine-2,6-dione]
 |  |  |  | ≥ 25 | F (F = >75-100% remaining) | E (E = >25-75% remaining) | ≥ 25 | Cc1ccc(-c2c(-c3ccc4c(c3)CN(C3CCC(=O)NC3=O)C4=O)cnn2C)cc1CO (stereo not drawn) [Example 157]
 |  |  |  | ≥ 25 |  | E (E = >25-75% remaining) | ≥ 25 | Cn1ncc(-c2ccc3c(c2)CN(C2CCC(=O)NC2=O)C3=O)c1-c1ccc(N)nc1 (stereo not drawn) [Example 370]
≥ 25 | F (F = >75-100% remaining) | D (D = >10- 25% remaining) | < 25 |  |  |  |  | Cn1ncc(-c2ccc3c(c2)CN(C2CCC(=O)NC2=O)C3=O)c1-c1ccc2ncsc2c1 (stereo not drawn) [Example 393]
 |  |  |  | ≥ 25 | F (F = >75-100% remaining) | C (C = 0-10% remaining) | < 25 | Cn1cnc(-c2ccc3c(c2)CN(C2CCC(=O)NC2=O)C3=O)c1-c1cccc(N)c1 (stereo not drawn) [Example 343]
≥ 25 | F (F = >75-100% remaining) | E (E = >25-75% remaining) | ≥ 25 |  |  |  |  | O=C1CCC(N2Cc3cc(-n4cnc(-c5ccccc5)c4)ccc3C2=O)C(=O)N1 (stereo not drawn) [Example 552, 3-(1-oxo-5-(4-phenyl-1H-imidazol-1-yl)isoindolin-2-yl)piperidine-2,6-dione]
≥ 25 | F (F = >75-100% remaining) | F (F = >75-100% remaining) | < 25 |  |  |  |  | Cn1ncc(-c2ccc3c(c2)CN(C2CCC(=O)NC2=O)C3=O)c1-c1cnc2c(ccn2C)c1 (stereo not drawn) [Example 390]
 |  |  |  | ≥ 25 | F (F = >75-100% remaining) | F (F = >75-100% remaining) | ≥ 25 | Cc1cncc(-c2c(-c3ccc4c(c3)CN(C3CCC(=O)NC3=O)C4=O)cnn2C)c1 (stereo not drawn) [Example 369]
≥ 25 | F (F = >75-100% remaining) | C (C = 0-10% remaining) | < 25 |  |  |  |  | Cn1cc(-c2ccc3c(c2)CN(C2CCC(=O)NC2=O)C3=O)nc1-c1cc(F)cc(Cl)c1 (stereo not drawn) [Example 586]
< 25 | F (F = >75-100% remaining) | E (E = >25-75% remaining) | ≥ 25 |  |  |  |  | Cc1c(-c2c(-c3ccc4c(c3)CN(C3CCC(=O)NC3=O)C4=O)cnn2C)cnn1-c1ccccc1 (stereo not drawn) [Example 481]
 |  |  |  | < 25 | D (D = >10- 25% remaining) | C (C = 0-10% remaining) | < 25 | COc1ccc(-c2c(-c3ccc4c(c3)CN(C3CCC(=O)NC3=O)C4=O)ncn2C)cc1O (stereo not drawn) [Example 253]
 |  |  |  | ≥ 25 | F (F = >75-100% remaining) | E (E = >25-75% remaining) | ≥ 25 | CC(C)Cc1ccc(-c2c(-c3ccc4c(c3)CN(C3CCC(=O)NC3=O)C4=O)cnn2C)cc1 (stereo not drawn) [Example 92]
≥ 25 | F (F = >75-100% remaining) | E (E = >25-75% remaining) | < 25 |  |  |  |  | Cn1cnc(-c2ccc3c(c2)CN(C2CCC(=O)NC2=O)C3=O)c1-c1ccc2scnc2c1 (stereo not drawn) [Example 402]
